Source: patent publication US20230321008A1, “INHIBITORS OF ACID SPHINGOMYELINASE FOR PREVENTING AND TREATING THE COVID-19 DISEASE” (priority 2020, published 2023)
“Also recorded” adds a separate entry of the source.

Key:
SARS-CoV-2 [1] = details: cited from earlier work
SARS-CoV-2 [2] = details: in vitro; cited from earlier work
[3] = target: T1, acid sphingomyelinase (ASM) (Homo sapiens, UniProt P17405); details: cited from earlier work
T1 sequence (P17405 47-631): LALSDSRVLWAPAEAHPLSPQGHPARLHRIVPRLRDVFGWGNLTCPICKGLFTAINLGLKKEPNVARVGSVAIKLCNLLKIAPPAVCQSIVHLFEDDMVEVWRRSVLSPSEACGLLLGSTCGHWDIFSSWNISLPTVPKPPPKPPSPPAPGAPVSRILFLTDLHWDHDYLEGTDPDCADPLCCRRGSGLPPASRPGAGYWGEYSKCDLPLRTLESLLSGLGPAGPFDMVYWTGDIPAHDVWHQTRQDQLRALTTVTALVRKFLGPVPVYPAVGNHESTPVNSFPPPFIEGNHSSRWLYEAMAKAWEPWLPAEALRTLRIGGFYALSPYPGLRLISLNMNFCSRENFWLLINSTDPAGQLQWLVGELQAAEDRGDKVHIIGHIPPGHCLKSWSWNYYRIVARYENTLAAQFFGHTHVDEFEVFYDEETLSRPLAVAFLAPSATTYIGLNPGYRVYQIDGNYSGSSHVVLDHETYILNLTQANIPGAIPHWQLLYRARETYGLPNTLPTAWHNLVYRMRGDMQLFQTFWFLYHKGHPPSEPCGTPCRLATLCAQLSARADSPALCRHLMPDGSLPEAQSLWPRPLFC

severe COVID-19 [4] = test: Example 1: multicenter observational retrospective cohort study, FIASMA psychotropic medication use at baseline and intubation or death in patients with mental disorder; assay type: in vivo, human; details: patients with mental disorder hospitalized for severe COVID-19; vs not exposed
Description: We conducted a multicenter observational retrospective cohort study at 36 AP-HP hospitals from the beginning of the epidemic in France, i.e. January 24th, until May 1st. We included all adults aged 18 years or over with a mental disorder who have been hospitalized in these medical centers for severe COVID-19. Mental disorder was defined as having at least one current International Statistical Classification of Diseases and Related Health Problems (ICD-10) diagnosis of mental disorder (F01-F99) during the visit or an ongoing prescription of any antidepressant, antipsychotic, or mood stabilizer (i.e. lithium or antiepileptic medications with mood stabilizing effects) for a psychiatric disorder at hospital admission. COVID-19 was ascertained by a positive reverse-transcriptase-polymerase-chain-reaction (RT-PCR) test from analysis of nasopharyngeal or oropharyngeal swab specimens. […]
We calculated frequencies of baseline characteristics described above in patients receiving or not receiving a FIASMA psychotropic medication and compared them using standardized mean differences (SMD). […]

severe COVID-19 [5] = test: Example 2: multicenter observational retrospective cohort study, FIASMA medication use at baseline and intubation or death in patients hospitalized for severe COVID-19; assay type: in vivo, human; details: vs no FIASMA medication
Description: We included all adults aged 18 years or over who have been hospitalized in these medical centers for severe COVID-19. COVID-19 was ascertained by a positive reverse-transcriptase-polymerase-chain-reaction (RT-PCR) test from analysis of nasopharyngeal or oropharyngeal swab specimens. Severe COVID-19 at admission was defined as having at least one of the following criteria: respiratory rate > 24 breaths/min or < 12 breaths/min, resting peripheral capillary oxygen saturation in ambient air < 90%, temperature > 40° C., systolic blood pressure < 100 mm Hg or high lactate levels. AP-HP clinical Data Warehouse initiatives ensure patient information and informed consent regarding the different approved studies through a transparency portal in accordance with European Regulation on data protection and authorization n°1980120 from National Commission for Information Technology and Civil Liberties (CNIL).
We used data from the AP-HP Health Data Warehouse (‘Entrepôt de Données de Santé (EDS)’). This warehouse contains all available clinical data on all inpatient visits for COVID-19 to any Greater Paris University hospital. The data included patient demographic characteristics, vital signs, laboratory test and RT-PCR test results, medication administration data, medication lists during current and past hospitalizations in AP-HP hospitals, current diagnoses, discharge disposition, and death certificates.
We obtained the following data for each patient at the time of the hospitalization: sex; age, which was categorized into 4 classes based on the OpenSAFELY study results (i.e. 18-50, 51-70, 71-80, 81+); hospital, which was categorized into 4 classes following the administrative clustering of AP-HP hospitals in Paris and its suburbs based on their geographical location (i.e., AP-HP Centre - Paris University, Henri Mondor University Hospitals and at home hospitalization; AP-HP Nord and Hôpitaux Universitaires Paris Seine-Saint-Denis; AP-HP Paris Saclay University; and AP-HP Sorbonne University); obesity, which was defined as having a body mass index higher than 30 kg/m^2 or an International Statistical Classification of Diseases and Related Health Problems (ICD-10) diagnosis code for obesity (E66.0, E66.1, E66.2, E66.8, E66.9); self-reported current smoking status; and any medication prescribed according to compassionate use or as part of a clinical trial (e.g. hydroxychloroquine, azithromycin, remdesivir, tocilizumab, sarilumab, or dexamethasone). To take into account possible confounding by indication bias for FIASMA medication, we recorded whether patients had any current diagnosis, based on ICD-10 diagnosis codes, for neoplasms and diseases of the blood (C00-D89); mental disorders (F01-F99); diseases of the nervous system (G00-G99); cardiovascular disorders (I00-I99); respiratory disorders (J00-J99); digestive disorders (K00-K95); dermatological disorders (L00-L99); diseases of the musculoskeletal system (M00-M99); diseases of the genitourinary system (N00-N99); endocrine disorders (E00-E89); and eye-ear-nose-throat disorders (H00-H95).
All medical notes and prescriptions are computerized in Greater Paris University hospitals. Medications including their dosage, frequency, date, and mode of administration were identified from medication administration data or scanned handwritten medical prescriptions, through two deep learning models based on BERT contextual embeddings, one for the medications and another for their mode of administration. The model was trained on the APmed corpus, a previously annotated dataset for this task. Extracted medications names were then normalized to the Anatomical Therapeutic Chemical (ATC) terminology using approximate string matching.
FIASMA medication use was defined as receiving at least one FIASMA medication at study baseline, i.e. within the first 24 hours of hospital admission, and before the end of the index hospitalization, intubation or death.

[6] = test system: ceramide-enriched membrane domains; details: in vitro; cited from earlier work
COVID-19 [7] = details: randomized double-blind controlled study; cited from earlier work
SARS-CoV-2 [8] = details: oral use in healthy volunteers; cited from earlier work
SARS-CoV-2 [9] = details: cited from earlier work; remark: listed apart in the source
COVID-19 [10] = test: Example 3: multicenter observational retrospective study, hydroxyzine use and death in patients admitted to hospital with COVID-19; assay type: in vivo, human
dopamine D2 receptor = dopamine D2 receptor (Homo sapiens, UniProt P14416); details: cited from earlier work
[11] = target: serotonin 5-HT2A-receptor (Homo sapiens, UniProt P28223); details: cited from earlier work
α1-adrenergic receptor = details: cited from earlier work

serotonin 5-HT2A-receptor, sequence (P28223 whole entry): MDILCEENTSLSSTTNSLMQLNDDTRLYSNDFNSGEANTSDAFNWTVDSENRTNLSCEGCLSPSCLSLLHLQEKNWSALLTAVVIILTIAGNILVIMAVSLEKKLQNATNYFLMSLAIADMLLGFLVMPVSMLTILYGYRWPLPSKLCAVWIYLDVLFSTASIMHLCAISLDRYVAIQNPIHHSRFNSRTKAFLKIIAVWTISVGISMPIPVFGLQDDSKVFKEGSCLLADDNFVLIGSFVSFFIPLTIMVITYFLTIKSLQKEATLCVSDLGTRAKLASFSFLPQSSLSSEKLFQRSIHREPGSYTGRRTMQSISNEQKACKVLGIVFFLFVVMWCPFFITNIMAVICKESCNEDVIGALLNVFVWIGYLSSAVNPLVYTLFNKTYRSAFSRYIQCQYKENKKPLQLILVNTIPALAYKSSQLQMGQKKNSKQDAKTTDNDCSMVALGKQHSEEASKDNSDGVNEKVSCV
dopamine D2 receptor, sequence (P14416 whole entry, species assumed): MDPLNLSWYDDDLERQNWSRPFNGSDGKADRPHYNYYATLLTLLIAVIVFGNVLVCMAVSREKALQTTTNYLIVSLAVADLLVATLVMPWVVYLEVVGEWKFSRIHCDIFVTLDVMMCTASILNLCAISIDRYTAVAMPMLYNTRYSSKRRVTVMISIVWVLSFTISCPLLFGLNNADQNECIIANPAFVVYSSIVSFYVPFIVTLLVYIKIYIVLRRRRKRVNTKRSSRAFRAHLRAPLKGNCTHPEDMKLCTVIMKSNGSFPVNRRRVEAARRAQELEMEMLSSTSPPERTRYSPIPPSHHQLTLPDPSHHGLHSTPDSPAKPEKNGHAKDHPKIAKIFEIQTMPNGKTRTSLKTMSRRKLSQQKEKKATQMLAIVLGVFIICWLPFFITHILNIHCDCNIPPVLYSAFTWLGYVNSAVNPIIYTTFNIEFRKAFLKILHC

Compound	Infection of Vero cells with SARS-CoV-2 (in words) (SARS-CoV-2 [1])	Inhibition of viral replication (in words) (SARS-CoV-2 [2])	In vitro inhibition of acid sphingomyelinase (in words) [3]	Association of use at baseline with risk of intubation or death (in words) (severe COVID-19 [4])	Association of use at baseline with risk of intubation or death (in words) (severe COVID-19 [5])	Formation of ceramide-enriched membrane domains (in words) [6]	other results
CN(C)CCC[C@@]1(c2ccc(F)cc2)OCc2cc(C#N)ccc21 [Escitalopram, escitalopram]	prevented Vero cells from being infected with SARS-CoV-2	inhibition of viral replication was not observed	inhibited ASM; also recorded: in vitro inhibit acid sphingomyelinase with varying degrees	reached statistical significance across all main and sensitivity analyses	reached statistical significance across all main and sensitivity analyses	inhibited ASM and the formation of ceramide-enriched membrane domains	–
COCCCC/C(=N\OCCN)c1ccc(C(F)(F)F)cc1 [fluvoxamine]	–	–	in vitro inhibit acid sphingomyelinase with varying degrees	–	–	–	Effect on COVID-19 disease progression (in words) (COVID-19 [7]): significant protective effects on COVID-19 disease progression
CN(C)CCC=C1c2ccccc2CCc2ccccc21 [Amitriptyline, amitriptyline]	prevented Vero cells from being infected with SARS-CoV-2	–	inhibited ASM; also recorded: in vitro inhibit acid sphingomyelinase with varying degrees	–	–	inhibited ASM and the formation of ceramide-enriched membrane domains	Infection of freshly isolated nasal epithelial cells with SARS-CoV-2 (in words) (SARS-CoV-2 [8]): efficiently blocked infection of freshly isolated nasal epithelial cells with SARS-CoV-2
CNCCC(Oc1ccc(C(F)(F)F)cc1)c1ccccc1 (stereo not drawn) [Fluoxetine, fluoxetine]	prevented Vero cells from being infected with SARS-CoV-2	inhibition of viral replication	inhibited ASM; also recorded: in vitro inhibit acid sphingomyelinase with varying degrees	–	–	inhibited ASM and the formation of ceramide-enriched membrane domains	Infection of cultured epithelial cells with SARS-CoV-2 (in words) (SARS-CoV-2 [9]): inhibition of the infection of cultured epithelial cells with SARS-CoV-2
OCCOCCN1CCN(C(c2ccccc2)c2ccc(Cl)cc2)CC1 (stereo not drawn) [Hydroxyzine, 2-[2-[4-[(4-chlorophenyl)-phenylmethyl]piperazin-1-yl]ethoxy]ethanol]	–	–	–	reached statistical significance across all main and sensitivity analyses	reached statistical significance across all main and sensitivity analyses	–	Association of cumulative dose with risk of death (in words) (COVID-19 [10]; higher rather than lower cumulative doses): significantly associated with lower risk of death; also recorded: significantly stronger at higher rather than lower cumulative doses; Association of use with risk of death (in words) (COVID-19 [10]; hospitalized adult patients with COVID-19): significantly and substantially associated with reduced risk of death; also recorded: significantly associated with reduced mortality in patients hospitalized for COVID-19; also recorded: significantly and substantially associated with lower risk of death; Antagonist action at the dopamine D2 receptor (in words) (dopamine D2 receptor): weakly acts as an antagonist; Antagonist action at the serotonin 5-HT2A-receptor (in words) [11]: weakly acts as an antagonist; Antagonist action at the α1-adrenergic receptor (in words) (α1-adrenergic receptor): weakly acts as an antagonist
